Experimental data reported in US5086059A, “Bis-naphthalimides as anticancer agents” (Du Pont Merck Pharmaceutical Company, priority 1990, dated 1992).
Counter-ions that a name gives are not always drawn. Like-named read-outs stand apart in the source and are kept apart here. One block for each compound: values may come before it.

Key:
L1210 cells = assay: In vitro Growth Inhibitory Activity Determination (L1210, MTT); format: cell-based; conditions: 3 days at 37° C., read-out: ID50 (L1210)
Experimental: L1210 cells were maintained in RPM-1640 a medium supplemented with 10% heat inactivated fetal bovine serum and […] mercaptomethanol/liter medium (RPMI-L). B16 cells were maintained in RPMI-1640 medium supplemented with 15% heat inactivated fetal bovine serum and antibiotics (RPMI-C).
Exponential growing L1210 cells (1×10^3 cells) or B16 cells (2-3×10^3 cells) in 0.1 mL medium were seeded on day 0 in a 96-well microtiter plate. On day 1, 0.1 mL aliquot of medium containing graded concentration of test analogs was added to the initial volume. After incubation at 37° C. in a humidified incubator for 3 days, the plates were centrifuged briefly and […] of the growth medium was removed. Cell cultures were incubated with […] of 3-(4,5-dimethylthiazol-2-yl)-2,5-diphenyltetrazolium bromide (MTT; 1 mg/ml in Dulbecco's phosphate buffer saline) for 4 hr. at 37° C. The resulting purple formazan precipitate was solubilized with […] of 0.04 N HCl in isopropyl alcohol. Absorbance was read in a Titertek Multiskan MCC scanning well spectrophotometer (Flow Laboratories) at a test wavelength of 570 nm and a reference wavelength of 630 nm.
The absorbances were stored on a floppy disk on a IBM-XT and uploaded on to a VAX computer. The ID50 values were determined by a computer program that fit all of the data (8 determinations per concentration and 12 concentrations per test analog) to the following equation:
Y=((Am-Ao)/(1+(X/ID50)n))+Ao
Am=absorbance of the control cells
Ao=absorbance of the cells in the presence of highest drug conc.
ID50 =dose of drug that inhibits the growth of cells to one half that of the control cells

B16F10 melanoma = assay: Tumor Cell Clearance Test B16F10 Melanoma; format: in vivo, mouse; conditions: for CPM/Lung (Mean + SEM): labelled B16F10 cells i.v. 24 h later, lungs counted 18 h later; for CPM/Lung (Mean + SEM) / Treated/Control: N=6; for Treated/Control: T/C <0.40 considered positive
Excerpt: One common route of cancer spread is through the blood. Very few cancer cells survive this hostile environment to go on and form metastases; NK cells and macrophages are believed to play an important role in controlling this hematogenous spread (Hanna, N. Cancer Research, 42:1337, 1982). Following the injection of various immunomodulators, macrophages and NK cells can be removed and shown to kill tumor cells in tissue culture. […] In the tumor cell clearance assay detailed below, radiolabelled tumor cells are injected intravenously (i.v.) into mice injected with an immunomodulator one day earlier. A decreased number of tumor cells, as reflected by a decreased amount of radioactivity remaining in the lungs, is used as an endpoint.
The B16 tumor line established from melanoma tumor which arose spontaneously on the skin at the base of the ear in a C57BL mouse. The B16F10 tumor subline was derived from the parent B16 line by selection for its ability to form lung tumors […] after i.v. injection and was subsequently established in vitro after 10 cycles of lung metastasis formation (Fidler, Eur. J. Cancer 9:223, 1973). The B16F10 tumor line is maintained by serial passage in vitro.
On day 0 female mice are injected intraperitoneally (i.p.) with test compound (6 mice/group) or vehicle alone (10 mice/group). Twenty-four hours later all mice are injected intravenously with 100,000 [^125 I] Iododeoxyuridine labelled B16F10 melanoma cells in 0.2 mL. Eighteen hours later mice are sacrificed and lungs removed and counted on a gamma counter.
Control and experimental group mean values are compared to the vehicle control using a Student's t-test. Poly I:C is an immunostimulant which activates macrophages and NK cells to kill and clear tumor cells faster and thus results in fewer cpm/lung. Statistical significance is set at p<0.05, and compounds with treated/control (T/C) values of <0.40 are considered positive.

IC50 (L1210 cells; Mus musculus, L1210, 72 h): 3010 nM
Compound: O=C1c2ccc3c4c(ccc(c24)C(=O)N1CCCNCCCCNCCCN1C(=O)c2ccc4c5c(ccc(c25)C1=O)CC4)CC3 [Example 1, 1,4-Bis-[3-(1,3,6,7-tetrahydro-1,3-dioxo-2H-indeno[6,7,1-def]isoquinoline-2-yl)propyl)-amino]butane dihydromethanesulfonate]

IC50 (L1210 cells; dihydrochloride, 4320 min): 1720 nM
Compound: O=C1c2ccc3c4c(ccc(c24)C(=O)N1CCCNCCCCNCCCN1C(=O)c2ccc4c5c(ccc(c25)C1=O)CC4)CC3 [Example 2, 1.4-Bis-[3 3.6 7-tetrahydro-1.3-dioxo-2H-indeno[6,7,1-def]isoquinoline-2-yl)propyl-amino]butane dihydrochloride]

IC50 (L1210 cells; Mus musculus, L1210, 72 h): 22 nM
Compound: CCN(CCCCN(CC)CCCN1C(=O)c2ccc3c4c(ccc(c24)C1=O)CC3)CCCN1C(=O)c2ccc3c4c(ccc(c24)C1=O)CC3 [Example 3, 1,4-Bis-3-(1,3,6,7-tetrahydro-1,3-dioxo-2H-indeno6,7,1-def]isoquinoline-2-yl)-N-ethyl-propylamino]butane dihydrochloride]
CPM/Lung (Mean + SEM) (B16F10 melanoma; 6.25 mg/kg i.p. on day 0): 27953 + 2567 CPM/Lung
Treated/Control (B16F10 melanoma; 6.25 mg/kg i.p.): 0.90
CPM/Lung (Mean + SEM) (B16F10 melanoma; 12.5 mg/kg i.p. on day 0): 24905 + 2497 CPM/Lung
Treated/Control (B16F10 melanoma; 12.5 mg/kg i.p.): 0.80
CPM/Lung (Mean + SEM) (B16F10 melanoma; 25 mg/kg i.p. on day 0): 6992 + 1417 CPM/Lung
Treated/Control (B16F10 melanoma; 25 mg/kg i.p., *p < 0.001 compared to vehicle control): 0.23
CPM/Lung (Mean + SEM) (B16F10 melanoma; 50 mg/kg i.p. on day 0): 3558 + 476 CPM/Lung
Treated/Control (B16F10 melanoma; 50 mg/kg i.p., *p < 0.001 compared to vehicle control): 0.11
activating nonspecific immune cells against tumor cells (B16F10 melanoma; result in words, mice, B16F10 tumor cell clearance): effective in activating nonspecific immune cells against the B16F10 melanoma

IC50 (L1210 cells; Mus musculus, L1210, 72 h): 290 nM
Compound: O=C1c2ccc3c4c(ccc(c24)C(=O)N1CCCCNCCCN1C(=O)c2ccc4c5c(ccc(c25)C1=O)CC4)CC3 [Example 4, 4-3-(1,3,6,7-Tetrahydro-1,3-dioxo-2H-indeno6,7,1-def]isoquinoline-2-yl)propyl-amino1-1-(1,3,6,7-tetrahydro-1,3-dioxo-2H-indeno-6,7,1-def]isoquinoline-2-yl)butane methanesulfonate]

Compound: Poly I:C [reference compound]
CPM/Lung (Mean + SEM) (B16F10 melanoma; 5 mg/kg i.p. on day 0): 1044 + 87 CPM/Lung
Treated/Control (B16F10 melanoma; 5 mg/kg i.p., *p < 0.001 compared to vehicle control): 0.03
